{"source": "patent US11840686B2", "about": "“Modulation of prekallikrein (PKK) expression” (Ionis Pharmaceuticals, Inc., priority 2013, dated 2023)", "system": "captopril-induced vascular permeability", "test": "Combination of PKK and Factor 12 antisense oligonucleotides on captopril-induced vascular permeability (Example 15)", "assay_type": "in vivo, mouse", "settings": "positive control: PBS + captopril 20 μg ip + HOE-140 30 μg ip", "experimental": "Mice were treated varying doses of ISIS 410944, a 5-10-5 MOE gapmer targeting Factor 12 ([…]; SEQ ID NO: 2247), and ISIS 482584 in a captopril-induced vascular permeability model.\nGroup 1 consisted of 4 mice and was treated with PBS administered subcutaneously twice a week for 3 weeks. No other treatment was administered to Group 1 which served as a control group to measure the basal levels of vascular permeability.\nGroup 2 consisted of 8 mice and was treated with PBS administered subcutaneously twice a week for 3 weeks. At the end of the treatment period, the mice were intraperitoneally administered 20 μg of captopril.\nGroup 3 consisted of 4 mice and was treated with PBS administered subcutaneously twice a week for 3 weeks. At the end of the treatment period, the mice were intraperitoneally administered 20 μg of captopril. The mice were also intraperitoneally administered 30 μg of HOE-140. Group 3 served as a positive control for inhibition of captopril-induced vascular permeability.\nGroups 4, 5, 6, 7, and 8 consisted of 8 mice each and were treated with 2.5 mg/kg, 5 mg/kg, 10 mg/kg, 20 mg/kg, or 40 mg/kg (corresponding to 5 mg/kg, 10 mg/kg, 20 mg/kg, 40 mg/kg, or 80 mg/kg per week), respectively of ISIS 482584 and ISIS 410944 each administered subcutaneously twice a week for 3 weeks. At the end of the treatment period, the mice of all the groups were intraperitoneally administered 20 μg of captopril. Groups 4-8 served as the experimental treatment groups for examining the effect of ISIS 410944 and ISIS 482584 on captopril-induced vascular permeability.\nAll the groups were then injected with 30 mg/kg of Evans Blue solution in the tail vein. The mice were sacrificed 30 min after the Evans Blue solution administration and colons, feet, ears, and intestines were harvested.\nThe harvested tissues from the feet, colon, and ears were placed in formamide solution overnight to leach out the Evans Blue dye. The formamide solution containing feet and ear tissue was heated to 55° C. and left overnight. Higher OD values are associated with higher levels of permeability."}
{"smiles": "NC(N)=NCCC[C@@H](N)C(=O)N[C@@H](CCCN=C(N)N)C(=O)N1CCC[C@H]1C(=O)N1C[C@H](O)C[C@H]1C(=O)NCC(=O)N[C@@H](Cc1cccs1)C(=O)N[C@@H](CO)C(=O)N1Cc2ccccc2C[C@@H]1C(=O)N1[C@H](C(=O)N[C@@H](CCCN=C(N)N)C(=O)O)C[C@@H]2CCCC[C@@H]21", "note": "[HOE-140, Icatibant, reference compound]", "values": [{"measurement": "OD600 nm of Evans Blue dye, Colon", "result": 0.23}, {"measurement": "OD600 nm of Evans Blue dye, Ears", "result": 0.04}, {"measurement": "OD600 nm of Evans Blue dye, Feet", "result": 0.06}, {"measurement": "OD600 nm of Evans Blue dye, Intestines", "result": 0.15}]}
